Measurements taken from patent US8716493B2, “Multicyclic compounds and the use thereof” (Cephalon, Inc., priority 2000, dated 2014).
Where a name gives a salt, the structure may show the parent alone.

molecular target: recombinant human PARP (Homo sapiens, UniProt P09874); assay: Measurement of PARP enzymatic activity (transfer of radiolabeled ADP-ribose from NAD+ to protein acceptor); type: biochemical; conditions: 3 uM; Table 3
Procedure, shortened: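 Radiometric assay measuring transfer of [32P]ADP-ribose from NAD+ (100 μM, 2 uCi/mL label) to histone or PARP automodification, 12 min at room temperature; acid-insoluble radioactivity counted by scintillation.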

Sequence of recombinant human PARP (P09874 whole entry): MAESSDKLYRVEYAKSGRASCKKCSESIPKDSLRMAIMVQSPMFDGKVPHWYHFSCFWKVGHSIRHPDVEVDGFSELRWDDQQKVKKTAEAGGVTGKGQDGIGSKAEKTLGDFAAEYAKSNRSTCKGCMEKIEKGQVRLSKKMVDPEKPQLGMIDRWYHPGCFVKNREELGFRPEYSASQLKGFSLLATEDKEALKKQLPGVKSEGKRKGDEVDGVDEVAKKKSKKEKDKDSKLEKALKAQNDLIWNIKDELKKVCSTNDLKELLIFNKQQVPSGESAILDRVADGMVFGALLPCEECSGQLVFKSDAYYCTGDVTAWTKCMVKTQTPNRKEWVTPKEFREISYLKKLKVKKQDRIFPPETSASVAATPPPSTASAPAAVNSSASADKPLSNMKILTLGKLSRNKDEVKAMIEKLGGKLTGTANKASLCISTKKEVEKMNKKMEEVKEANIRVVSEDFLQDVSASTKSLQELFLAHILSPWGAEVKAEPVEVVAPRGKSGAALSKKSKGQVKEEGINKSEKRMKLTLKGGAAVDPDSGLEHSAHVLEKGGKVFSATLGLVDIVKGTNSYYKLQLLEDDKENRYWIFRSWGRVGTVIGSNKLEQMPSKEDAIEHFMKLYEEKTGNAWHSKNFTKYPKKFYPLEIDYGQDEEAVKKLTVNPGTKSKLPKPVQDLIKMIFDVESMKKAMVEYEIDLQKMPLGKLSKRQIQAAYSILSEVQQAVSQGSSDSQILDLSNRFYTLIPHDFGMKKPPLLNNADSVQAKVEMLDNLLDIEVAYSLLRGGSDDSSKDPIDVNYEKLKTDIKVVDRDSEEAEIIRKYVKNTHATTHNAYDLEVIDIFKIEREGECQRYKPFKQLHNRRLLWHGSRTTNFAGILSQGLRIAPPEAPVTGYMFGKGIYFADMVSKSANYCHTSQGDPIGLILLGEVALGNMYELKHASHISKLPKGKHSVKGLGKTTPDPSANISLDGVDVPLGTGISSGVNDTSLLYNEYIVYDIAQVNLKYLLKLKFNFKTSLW

Compound | PARP percent inhibition @ 3 uM
NCCCCC(N)C(=O)n1c2ccc(Br)cc2c2c3c(c4c(c21)CCC4)C(=O)NC3 [Compound 6i, 3-Bromo-11-L-lysyl-5,7,8,9,10,11-hexahydrocyclopent[a]pyrrolo[3,4-c]carbazole-7(6H)-one dihydrochloride] | [35% @

same assay, conditions: PARP IC50 (nM), Table 8

Compound | IC50 [nM]
O=C1NC(=O)c2c1c1c(c3[nH]c4ccc(OC(=O)N5CCOCC5)cc4c23)CCC1 [Compound 15a] | 35
CN1CCN(C(=O)Oc2ccc3[nH]c4c5c(c6c(c4c3c2)C(=O)NC6=O)CCC5)CC1 [Compound 15b] | 51
COCCNC(=O)Oc1ccc2[nH]c3c4c(c5c(c3c2c1)C(=O)NC5=O)CCC4 [Compound 15c] | 40
O=C(NCCCn1ccnc1)Oc1ccc2[nH]c3c4c(c5c(c3c2c1)C(=O)NC5=O)CCC4 [Compound 15d] | 32
O=C(NCCCN1CCCC1=O)Oc1ccc2[nH]c3c4c(c5c(c3c2c1)C(=O)NC5=O)CCC4 [Compound 15e] | 28
O=C(NCc1cccnc1)Oc1ccc2[nH]c3c4c(c5c(c3c2c1)C(=O)NC5=O)CCC4 [Compound 15f] | 34
O=C(NCCc1ccccn1)Oc1ccc2[nH]c3c4c(c5c(c3c2c1)C(=O)NC5=O)CCC4 [Compound 15g] | 36
CN(CCc1ccccn1)C(=O)Oc1ccc2[nH]c3c4c(c5c(c3c2c1)C(=O)NC5=O)CCC4 [Compound 15h] | 39
O=C(NN1CCOCC1)Oc1ccc2[nH]c3c4c(c5c(c3c2c1)C(=O)NC5=O)CCC4 [Compound 15k] | 20
O=C1NC(=O)c2c1c1c(c3[nH]c4ccc(OC(=O)N5CCN(CCO)CC5)cc4c23)CCC1 [Compound 15l] | 15
O=C(NCCc1ccccn1)Oc1ccc2[nH]c3c4c(c5c(c3c2c1)C(=O)NC5=O)CCC4 [Compound 15m] | 31

same assay, conditions: PARP IC50, Table 18

Compound | IC50 [nM]
O=C(NCCn1cncn1)Oc1ccc2[nH]c3c4c(c5c(c3c2c1)C(=O)NC5=O)CCC4 [Compound 15n] | 38
O=C1NC(=O)c2c1c1c(c3[nH]c4ccc(OC(=O)N5CCOCCOCCOCC5)cc4c23)CCC1 [Compound 15o] | 76
O=C1NC(=O)c2c1c1c(c3[nH]c4ccc(OC(=O)N5CCCCC5)cc4c23)CCC1 [Compound 15p] | 82

same assay, conditions: Table 2; read-out: PARP IC50

Compound | IC50 [nM]
O=C(O)CCCC(=O)c1ccc2[nH]c3c4c(c5c(c3c2c1)C(=O)NC5=O)CCC4 [Compound 4n] | 2
NC(=O)[C@@H]1CCCN1C(=O)CCC(=O)c1ccc2[nH]c3c4c(c5c(c3c2c1)C(=O)NC5=O)CCC4 [Compound 4o] | 13
O=C(CCC(=O)N1CCCCC1)c1ccc2[nH]c3c4c(c5c(c3c2c1)C(=O)NC5=O)CCC4 [Compound 4p] | 10
CC(C)(C)OC(=O)N1CCN(C(=O)CCC(=O)c2ccc3[nH]c4c5c(c6c(c4c3c2)C(=O)NC6=O)CCC5)CC1 [Compound 4q] | 10
O=C(CCC(=O)N1CCNCC1)c1ccc2[nH]c3c4c(c5c(c3c2c1)C(=O)NC5=O)CCC4 [Compound 4r] | 15
O=C(CCC(=O)N1CCCCCCC1)c1ccc2[nH]c3c4c(c5c(c3c2c1)C(=O)NC5=O)CCC4 [Compound 4s] | 26
O=C(CCC(=O)N1CCCC1)c1ccc2[nH]c3c4c(c5c(c3c2c1)C(=O)NC5=O)CCC4 [Compound 4t] | 16

same assay, conditions: Table 3; read-out: PARP IC50

Compound | IC50 [nM]
NCCCC[C@H](N)C(=O)N1C(=O)c2c3c(c4[nH]c5ccc(Cl)cc5c4c2C1=O)CCC3 [Compound 6f] | 62
N#Cc1ccc2c(c1)c1c3c(c4c(c1n2C(=O)[C@@H](N)CCCCN)CCC4)C(=O)NC3 [Compound 6j, 3-Cyano-11-L-lysyl-5,7,8,9,10,11-hexahydrocyclopent[a]pyrrolo[3,4-c]carbazole-7(6H)-one dihydrochloride] | 460

same assay, conditions: Table 4; read-out: PARP IC50

Compound | IC50 [nM]
O=C1NC(=O)c2c1c1c(c3[nH]cc(Br)c23)CCC1 [Compound 8c, 3-Bromo-1,6,7,8-tetrahydrocyclopent[g]indole-4,5-dicarboxylate imide] | 5
N#Cc1c[nH]c2c3c(c4c(c12)C(=O)NC4=O)CCC3 [Compound 8d, 3-Cyano-1,6,7,8-tetrahydrocyclopent[g]indole-4,5-dicarboxylate imide] | 6
O=c1[nH][nH]c(=O)c2c1c1c(c3[nH]ccc32)CCC1 [Compound 8e, 1,6,7,8-Tetrahydrocyclopent[g]indole-4,5-dicarboxylate hydrazide] | 1820
O=C1NC(=O)c2c1c1c(c3[nH]c4ncccc4c23)CCC1 [Compound 8h] | 3

same assay, conditions: Table 7; read-out: PARP IC50

Compound | IC50 [nM]
COc1ccc2c(c1)[nH]c1c3c(c4c(c12)C(=O)NC4=O)CCC3 [Compound 14a] | 224
COc1cccc2[nH]c3c4c(c5c(c3c12)C(=O)NC5=O)CCC4 [Compound 14b] | 19

same assay, conditions: Table 18; read-out: PARP IC50

Compound | IC50 [nM]
COCCOc1ccnc2[nH]c3c4c(c5c(c3c12)C(=O)NC5=O)CCC4 [Compound 8aa] | 10
CCOCCOc1ccnc2[nH]c3c4c(c5c(c3c12)C(=O)NC5=O)CCC4 [Compound 8ab] | 11
O=C1NC(=O)c2c1c1c(c3[nH]c4c(ccc[n+]4[O-])c23)CCC1 [Compound 8l] | 38
COc1cc[n+]([O-])c2[nH]c3c4c(c5c(c3c12)C(=O)NC5=O)CCC4 [Compound 8m] | 17
O=C1NC(=O)c2c1c1c(c3[nH]c4nc(O)ccc4c23)CCC1 [Compound 8n] | 6
CO[n+]1cccc2c3c4c(c5c(c3[nH]c21)CCC5)C(=O)NC4=O [Compound 8o] | 4
O=C1NC(=O)c2c1c1c(c3[nH]c4nc(O)c(Br)cc4c23)CCC1 [Compound 8p] | 20
O=C1NC(=O)c2c1c1c(c3[nH]c4nc(O)c(Cl)cc4c23)CCC1 [Compound 8s] | 14
COc1cnc2[nH]c3c4c(c5c(c3c2c1)C(=O)NC5=O)CCC4 [Compound 8w] | 4
COc1ccnc2[nH]c3c4c(c5c(c3c12)C(=O)NC5=O)CCC4 [Compound 8x] | 4
CCOc1ccnc2[nH]c3c4c(c5c(c3c12)C(=O)NC5=O)CCC4 [Compound 8y] | 5
O=C1NC(=O)c2c1c1c(c3[nH]c4nccc(Cl)c4c23)CCC1 [Compound 8z] | 9
O=C1NC(=O)c2c1c1c(c3[nH]c4cccc(O)c4c23)CCC1 [Compound 14c] | 176
O=C1NC(=O)c2c1c1c(c3[nH]c4cccc(OCCN5CCOCC5)c4c23)CCC1 [Compound 14d] | 441
CCN(CC)CCOc1cccc2[nH]c3c4c(c5c(c3c12)C(=O)NC5=O)CCC4 [Compound 14e] | 526
COCCOc1cccc2[nH]c3c4c(c5c(c3c12)C(=O)NC5=O)CCC4 [Compound 14f] | 25
CCOc1cccc2[nH]c3c4c(c5c(c3c12)C(=O)NC5=O)CCC4 [Compound 14g] | 56
CC(C)Oc1cccc2[nH]c3c4c(c5c(c3c12)C(=O)NC5=O)CCC4 [Compound 14h] | 207
CCOCCOc1cccc2[nH]c3c4c(c5c(c3c12)C(=O)NC5=O)CCC4 [Compound 14i] | 36
CC(C)OCCOc1cccc2[nH]c3c4c(c5c(c3c12)C(=O)NC5=O)CCC4 [Compound 14j] | 70
O=C1NC(=O)c2c1c1c(c3[nH]c4cccc(OCCO)c4c23)CCC1 [Compound 14k] | 83
COc1ccc2[nH]c3c4c(c5c(c3c2c1OC)C(=O)NC5=O)CCC4 [Compound 14l] | 21
COc1c(Br)ccc2[nH]c3c4c(c5c(c3c12)C(=O)NC5=O)CCC4 [Compound 14m] | 67
COc1c(I)ccc2[nH]c3c4c(c5c(c3c12)C(=O)NC5=O)CCC4 [Compound 14n] | 126
COc1c(C#N)ccc2[nH]c3c4c(c5c(c3c12)C(=O)NC5=O)CCC4 [Compound 14o] | 7
COc1cccc2c1c1c3c(c4c(c1n2CN1CCOCC1)CCC4)C(=O)N(CN1CCOCC1)C3=O [Compound 16a] | 10
COc1cccc2[nH]c3c4c(c5c(c3c12)C(=O)N(CN1CCOCC1)C5=O)CCC4 [Compound 16d] | 11
COc1cccc2[nH]c3c4c(c5c(c3c12)C(=O)N(CN1CCN(C)CC1)C5=O)CCC4 [Compound 16e] | 14
CN(C)CN1C(=O)c2c3c(c4[nH]c5ccccc5c4c2C1=O)CCC3 [Compound 16i] | 53
